Assay results from US20250011332A1, “PYRAZOLO FUSED RING COMPOUND AND USE THEREOF” (SOTER BIOPHARMA PTE. LTD., priority 2021, published 2025).

Experiments:
Format in all cases: biochemical
JAK1(h) = JAK1(h) (Homo sapiens (Human), UniProt P23458); assay: JAK1 kinase activity test in vitro ([γ-33P]-ATP, Eurofins)
Description: (§1) Recombinant human JAK1, JAK2, JAK3 and Tyk2 […], main instruments and reagents are all provided by the British company Eurofins
(§2) JAK2, JAK3 and TYK2 dilution: 20 mM 3-(N-morpholine)propanesulfonic acid (MOPS), 1 mM EDTA, 0.01% Brij-35.5% glycerol, 0.1% β-mercaptoethanol, 1 mg/mL BSA; JAK1 dilution: 20 mM TRIS, 0.2 mM EDTA, 0.1% β-mercaptoethanol, 0.01% Brij-35.5% glycerol. All compounds were prepared as 100% DMSO solutions and brought to 50 times the final assay concentration. The test compound was subjected to 3-fold serial concentration dilution with a final concentration from 10 μM to 0.001 μM of a total of 9 concentrations. The content of DMSO in the detection reaction was 2%. A working stock solution of this compound was added to the assay well as the first component of the reaction, and then the remaining components were added according to the protocol detailed in the following determination.
JAK1(h) was incubated with 20 mM Tris/HCl pH 7.5, 0.2 mM EDTA, 500 μM MGEEPLYWSFPAKKK (SEQ ID NO: 1), 10 mM magnesium acetate and [γ-^33P]-ATP (activity and concentration were determined as required). The reaction was started by adding the Mg/ATP mixture, and after incubation at room temperature for 40 min, the reaction was terminated by adding 0.5% phosphoric acid. Then 10 μL of the reaction product was spotted on a P30 filter pad which was washed three times with 0.425% phosphoric acid and once with methanol within 4 min, dried, and subjected to scintillation counting.
(§3) IC50 results were analyzed by XLFIT5 (205 formula) of IDBS Company.

TYK2(h) = TYK2(h) (Homo sapiens (Human), UniProt P29597); assay: TYK2 kinase activity test in vitro ([γ-33P]-ATP, Eurofins)
Description: as §1, §2
(§4) TYK2(h) was incubated with 8 mM MOPS pH 7.0, 0.2 mM EDTA, 250 μM GGMEDIYFEFMGGKKK (SEQ ID NO: 4), 10 mM magnesium acetate, and [γ-^33P]-ATP (activity and concentration were determined as required). The reaction was started by adding the Mg/ATP mixture, and after incubation at room temperature for 40 min, the reaction was terminated by adding 0.5% phosphoric acid. Then 10 μL of the reaction product was spotted on a P30 filter pad which was washed three times with 0.425% phosphoric acid and once with methanol within 4 min, dried, and subjected to scintillation counting.
as §3

JAK3(h) = JAK3(h) (Homo sapiens (Human), UniProt P52333); assay: JAK3 kinase activity test in vitro ([γ-33P]-ATP, Eurofins)
Description: as §1, §2
as §4, with “JAK3(h)” for “TYK2(h)”, “500” for “250”, “GGEEEEYFELVKKKK” for “GGMEDIYFEFMGGKKK”, “3),” for “4),”
as §3

JAK2(h) = JAK2(h) (Homo sapiens (Human), UniProt O60674); assay: JAK2 kinase activity test in vitro ([γ-33P]-ATP, Eurofins)
Description: as §1, §2
as §4, with “JAK2(h)” for “TYK2(h)”, “100” for “250”, “GGMEDIYFEFMGGKKK” left out, “2),” for “4),”
as §3

Sequence of JAK1(h) (P23458 whole entry): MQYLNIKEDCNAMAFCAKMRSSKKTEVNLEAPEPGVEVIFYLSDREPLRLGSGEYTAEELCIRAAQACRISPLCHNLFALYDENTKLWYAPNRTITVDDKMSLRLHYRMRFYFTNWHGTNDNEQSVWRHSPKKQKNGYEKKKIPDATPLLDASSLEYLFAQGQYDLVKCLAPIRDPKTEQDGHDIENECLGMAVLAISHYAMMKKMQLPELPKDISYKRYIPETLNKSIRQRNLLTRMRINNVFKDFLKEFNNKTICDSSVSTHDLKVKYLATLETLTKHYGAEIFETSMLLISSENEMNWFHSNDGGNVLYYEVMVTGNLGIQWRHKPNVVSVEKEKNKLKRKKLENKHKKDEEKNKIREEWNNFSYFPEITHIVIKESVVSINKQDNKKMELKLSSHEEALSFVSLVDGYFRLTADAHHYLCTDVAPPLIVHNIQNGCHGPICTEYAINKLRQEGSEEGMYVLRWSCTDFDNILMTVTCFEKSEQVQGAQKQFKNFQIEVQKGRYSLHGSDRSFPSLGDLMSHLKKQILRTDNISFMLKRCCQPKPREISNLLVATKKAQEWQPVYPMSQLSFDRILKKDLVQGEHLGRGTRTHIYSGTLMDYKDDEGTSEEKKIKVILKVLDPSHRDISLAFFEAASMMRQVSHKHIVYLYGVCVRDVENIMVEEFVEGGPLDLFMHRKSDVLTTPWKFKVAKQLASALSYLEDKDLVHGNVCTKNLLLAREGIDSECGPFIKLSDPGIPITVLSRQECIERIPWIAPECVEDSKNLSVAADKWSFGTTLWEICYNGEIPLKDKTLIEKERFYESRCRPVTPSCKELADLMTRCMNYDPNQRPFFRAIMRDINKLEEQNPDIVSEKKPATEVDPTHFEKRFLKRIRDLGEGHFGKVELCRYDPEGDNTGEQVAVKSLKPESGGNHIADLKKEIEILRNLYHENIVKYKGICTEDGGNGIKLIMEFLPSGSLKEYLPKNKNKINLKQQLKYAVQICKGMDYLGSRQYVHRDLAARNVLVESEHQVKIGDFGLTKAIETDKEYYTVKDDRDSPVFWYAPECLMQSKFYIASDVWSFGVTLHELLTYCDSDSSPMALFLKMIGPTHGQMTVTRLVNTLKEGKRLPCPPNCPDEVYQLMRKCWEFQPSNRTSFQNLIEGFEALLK
Sequence of JAK3(h) (P52333 whole entry): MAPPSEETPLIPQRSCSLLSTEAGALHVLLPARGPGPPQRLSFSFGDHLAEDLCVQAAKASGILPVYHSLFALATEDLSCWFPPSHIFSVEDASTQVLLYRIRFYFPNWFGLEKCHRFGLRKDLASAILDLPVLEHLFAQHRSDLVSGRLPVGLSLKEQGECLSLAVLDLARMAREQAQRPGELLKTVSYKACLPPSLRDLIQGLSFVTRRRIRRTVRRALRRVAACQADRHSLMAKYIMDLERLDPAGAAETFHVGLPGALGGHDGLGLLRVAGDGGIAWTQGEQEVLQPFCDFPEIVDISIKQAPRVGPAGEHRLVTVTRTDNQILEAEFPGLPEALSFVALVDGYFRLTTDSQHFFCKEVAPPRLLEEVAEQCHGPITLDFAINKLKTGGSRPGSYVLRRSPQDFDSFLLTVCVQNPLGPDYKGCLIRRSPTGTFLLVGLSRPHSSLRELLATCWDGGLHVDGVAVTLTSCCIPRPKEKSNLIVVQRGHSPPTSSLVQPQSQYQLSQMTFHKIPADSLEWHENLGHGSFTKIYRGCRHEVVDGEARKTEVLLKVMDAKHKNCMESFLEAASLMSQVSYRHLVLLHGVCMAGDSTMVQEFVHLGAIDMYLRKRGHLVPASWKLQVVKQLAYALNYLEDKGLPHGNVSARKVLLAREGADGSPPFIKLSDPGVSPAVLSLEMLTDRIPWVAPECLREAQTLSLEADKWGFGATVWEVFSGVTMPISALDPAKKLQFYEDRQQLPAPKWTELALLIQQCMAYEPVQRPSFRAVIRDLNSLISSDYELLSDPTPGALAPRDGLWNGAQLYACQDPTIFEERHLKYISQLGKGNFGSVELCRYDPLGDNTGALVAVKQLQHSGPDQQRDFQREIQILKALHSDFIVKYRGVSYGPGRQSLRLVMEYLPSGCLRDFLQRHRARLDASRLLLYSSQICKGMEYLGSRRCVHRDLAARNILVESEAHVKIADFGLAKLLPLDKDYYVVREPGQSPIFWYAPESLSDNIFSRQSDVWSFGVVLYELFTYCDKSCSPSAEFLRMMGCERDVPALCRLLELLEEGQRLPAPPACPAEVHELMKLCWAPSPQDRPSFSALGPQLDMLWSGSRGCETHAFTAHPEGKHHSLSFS
Sequence of TYK2(h) (P29597 whole entry): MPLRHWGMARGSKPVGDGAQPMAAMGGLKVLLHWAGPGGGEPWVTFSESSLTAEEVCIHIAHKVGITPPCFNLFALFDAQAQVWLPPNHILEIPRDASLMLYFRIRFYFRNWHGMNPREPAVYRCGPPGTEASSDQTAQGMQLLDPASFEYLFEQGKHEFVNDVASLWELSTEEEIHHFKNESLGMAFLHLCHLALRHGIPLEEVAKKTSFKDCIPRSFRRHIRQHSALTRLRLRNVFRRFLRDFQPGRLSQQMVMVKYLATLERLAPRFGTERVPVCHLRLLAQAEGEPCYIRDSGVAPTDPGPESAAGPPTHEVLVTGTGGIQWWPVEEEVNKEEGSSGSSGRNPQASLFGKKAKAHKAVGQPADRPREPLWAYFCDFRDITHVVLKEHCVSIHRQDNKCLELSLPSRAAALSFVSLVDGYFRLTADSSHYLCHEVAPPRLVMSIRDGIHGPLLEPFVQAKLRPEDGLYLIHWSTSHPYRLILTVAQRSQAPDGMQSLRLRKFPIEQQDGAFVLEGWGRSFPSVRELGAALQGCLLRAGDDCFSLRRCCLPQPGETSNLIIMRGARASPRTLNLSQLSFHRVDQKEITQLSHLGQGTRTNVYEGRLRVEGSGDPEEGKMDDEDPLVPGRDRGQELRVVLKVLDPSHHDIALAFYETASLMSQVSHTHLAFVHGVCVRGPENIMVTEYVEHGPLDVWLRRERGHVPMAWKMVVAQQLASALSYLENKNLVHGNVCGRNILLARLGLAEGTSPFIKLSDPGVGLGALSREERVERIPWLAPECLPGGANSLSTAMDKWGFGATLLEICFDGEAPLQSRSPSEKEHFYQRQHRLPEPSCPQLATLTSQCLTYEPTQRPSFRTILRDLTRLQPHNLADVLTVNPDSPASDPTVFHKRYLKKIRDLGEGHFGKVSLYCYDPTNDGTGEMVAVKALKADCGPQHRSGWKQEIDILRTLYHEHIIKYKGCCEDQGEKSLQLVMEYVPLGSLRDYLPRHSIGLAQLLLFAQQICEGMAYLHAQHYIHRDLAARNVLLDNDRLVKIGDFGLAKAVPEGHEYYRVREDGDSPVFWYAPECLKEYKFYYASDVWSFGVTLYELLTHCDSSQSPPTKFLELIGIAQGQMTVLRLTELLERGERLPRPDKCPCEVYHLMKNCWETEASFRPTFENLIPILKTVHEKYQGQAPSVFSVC
Sequence of JAK2(h) (O60674 whole entry): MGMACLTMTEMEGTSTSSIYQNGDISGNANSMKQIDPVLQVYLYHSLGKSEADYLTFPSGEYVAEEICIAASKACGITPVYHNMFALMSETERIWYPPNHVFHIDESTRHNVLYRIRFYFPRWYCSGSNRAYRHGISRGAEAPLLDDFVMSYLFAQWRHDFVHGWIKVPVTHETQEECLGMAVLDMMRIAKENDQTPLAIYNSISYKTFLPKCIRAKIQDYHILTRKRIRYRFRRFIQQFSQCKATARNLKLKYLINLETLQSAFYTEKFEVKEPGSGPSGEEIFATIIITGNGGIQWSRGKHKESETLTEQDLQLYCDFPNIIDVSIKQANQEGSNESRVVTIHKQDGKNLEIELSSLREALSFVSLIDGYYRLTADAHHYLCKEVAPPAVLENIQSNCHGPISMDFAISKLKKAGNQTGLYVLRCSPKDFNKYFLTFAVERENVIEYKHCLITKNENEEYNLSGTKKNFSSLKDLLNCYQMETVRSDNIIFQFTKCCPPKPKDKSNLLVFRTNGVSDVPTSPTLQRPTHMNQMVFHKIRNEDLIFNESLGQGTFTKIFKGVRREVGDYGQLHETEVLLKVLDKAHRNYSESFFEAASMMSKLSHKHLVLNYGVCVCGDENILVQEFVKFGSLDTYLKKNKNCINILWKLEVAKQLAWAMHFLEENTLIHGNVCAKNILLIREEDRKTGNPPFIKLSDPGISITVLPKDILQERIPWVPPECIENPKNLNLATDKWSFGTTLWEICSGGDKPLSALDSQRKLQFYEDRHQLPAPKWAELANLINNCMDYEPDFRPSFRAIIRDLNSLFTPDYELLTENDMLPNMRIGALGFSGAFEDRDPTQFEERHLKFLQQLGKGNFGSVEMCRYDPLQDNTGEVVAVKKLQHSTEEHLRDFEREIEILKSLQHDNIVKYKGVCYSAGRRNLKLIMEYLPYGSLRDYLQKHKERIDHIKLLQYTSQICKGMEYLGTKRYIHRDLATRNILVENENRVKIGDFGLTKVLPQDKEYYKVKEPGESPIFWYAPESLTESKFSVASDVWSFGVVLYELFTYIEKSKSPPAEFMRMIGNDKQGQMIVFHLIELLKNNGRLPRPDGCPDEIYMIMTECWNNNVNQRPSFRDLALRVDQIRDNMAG

SMILES | IC50 (JAK1(h)) | IC50 (TYK2(h)) | IC50 (JAK3(h)) | IC50 (JAK2(h))
Cn1ccc(-c2cn3nccc3c(-c3cnn(C(CC#N)C45CC(C#N)(C4)C5)c3)n2)n1 (stereo not shown) [Compound 3] | 1.17 µM | 0.177 µM | 10 µM | 0.387 µM
Cn1ccc(-c2cn3nccc3c(-c3cnn([C@]4(CC#N)CC5(C[C@@H](C#N)C5)C4)c3)n2)n1 (stereo partly shown) [Compound 5] | 0.078 µM | 0.009 µM | 2.26 µM | 0.04 µM
Cn1nc(-c2cn3nccc3c(-c3cnn([C@]4(CC#N)CC5(C[C@H](C#N)C5)C4)c3)n2)cc1N (stereo partly shown) [Compound 14] | 0.051 µM | 0.0008 µM | 0.296 µM | 0.006 µM
N#CC[C@]1(n2cc(-c3nc(-c4cc(N)[nH]n4)cn4nccc34)cn2)CC2(C[C@@H](C#N)C2)C1 (stereo partly shown) [Compound 21] | 0.005 µM | 0.0007 µM | 0.099 µM | 0.003 µM
Cn1ccc(-c2cn3nccc3c(-c3cnn(C4(CC#N)CC5C(C#N)C5C4)c3)n2)n1 (stereo not shown) [Compound 8] | 0.0137 µM | 0.00643 µM | 0.0228 µM | 0.00113 µM
Cn1ccc(-c2cn3nccc3c(-c3cnn(C4(CC#N)CC5(CN(C#N)C5)C4)c3)n2)n1 [Compound 7] | 2.91 µM | 0.228 µM |  | 
